Patent US8551984B2, “Aminopyrimidines as SYK inhibitors” (Merck Sharp & Dohme Corp., priority 2009, dated 2013)

Target: recombinant human SYK (GST-hSYK fusion protein) (Homo sapiens, UniProt P43405)
Assay: biochemical
Conditions: RHSYK Activity, Table 54A
From the text: Homogeneous Time-Resolved Fluorescence (HTRF) Assay for the Recombinant Human SYK Enzyme:

Structure (SMILES)	IC50 [nM]
COc1ccnc(Nc2cc(C)cc(-c3cnc(C4(O)CCNCC4)s3)c2)n1 [Example 54A-20]	< 100
Cc1cc(Nc2nccc(C(F)(F)F)n2)cc(-c2cnc(C3(O)CCN(CC(F)(F)F)CC3)s2)c1 [Example 54A-24]	< 100

Now from value to molecule:

IC50 [nM]	Structure (SMILES)
< 100	Cc1cc(Nc2nccc(C(F)(F)F)n2)cc(-c2cnc(C3(O)CCN(S(=O)(=O)C(C)C)CC3)s2)c1 [Example 54A-1]
< 100	Cc1cc(Nc2nccc(C(F)(F)F)n2)cc(-c2cnc(C3(O)CCN(S(=O)(=O)C(F)(F)F)CC3)s2)c1 [Example 54A-2]
< 100	Cc1cc(Nc2nccc(C(F)(F)F)n2)cc(-c2cnc(C3(O)CCN(S(=O)(=O)c4cn(C)cn4)CC3)s2)c1 [Example 54A-3]
< 100	CCC(=O)N1CCC(O)(c2ncc(-c3cc(C)cc(Nc4nccc(C(F)(F)F)n4)c3)s2)CC1 [Example 54A-4]
< 100	Cc1cc(Nc2nccc(C(F)(F)F)n2)cc(-c2cnc(C3(O)CCN(C(=O)CO)CC3)s2)c1 [Example 54A-5]
< 100	Cc1cc(Nc2nccc(C(F)(F)F)n2)cc(-c2cnc(C3(O)CCN(C(=O)CC#N)CC3)s2)c1 [Example 54A-6]
< 100	Cc1cc(Nc2nccc(C(F)(F)F)n2)cc(-c2cnc(C3(O)CCN(C(=O)CN(C)C)CC3)s2)c1 [Example 54A-7]
< 100	Cc1cc(Nc2nccc(C(F)(F)F)n2)cc(-c2cnc(C3(O)CCN(C(=O)c4cccnc4)CC3)s2)c1 [Example 54A-8]
< 100	Cc1cc(Nc2nccc(C(F)(F)F)n2)cc(-c2cnc(C3(O)CCN(C(=O)c4ccccn4)CC3)s2)c1 [Example 54A-9]
< 100	Cc1cc(Nc2nccc(C(F)(F)F)n2)cc(-c2cnc(C3(O)CCN(C(=O)CN4CCCC4=O)CC3)s2)c1 [Example 54A-10]
< 100	Cc1cc(Nc2nccc(C(F)(F)F)n2)cc(-c2cnc(C3(O)CCN(C(=O)C4CC4)CC3)s2)c1 [Example 54A-11]
< 100	Cc1cc(Nc2nccc(C(F)(F)F)n2)cc(-c2cnc(C3(O)CCN(C(=O)NC4CCCCC4)CC3)s2)c1 [Example 54A-12]
< 100	Cc1cc(Nc2nccc(C(F)(F)F)n2)cc(-c2cnc(C3(O)CCN(C(=O)NC(C)C)CC3)s2)c1 [Example 54A-13]
< 100	CCCNC(=O)N1CCC(O)(c2ncc(-c3cc(C)cc(Nc4nccc(C(F)(F)F)n4)c3)s2)CC1 [Example 54A-14]
< 100	Cc1cc(Nc2nccc(C(F)(F)F)n2)cc(-c2cnc(C3(O)CCN(C(=O)N(C)C)CC3)s2)c1 [Example 54A-15]
< 100	COc1ccnc(Nc2cc(C)cc(-c3cnc(C4(O)CCN(C(=O)NC(=O)N(C)C)CC4)s3)c2)n1 [Example 54A-17]
< 100	COc1ccnc(Nc2cc(C)cc(-c3cnc(C4(O)CCN(C(N)=O)CC4)s3)c2)n1 [Example 54A-19]
< 100	Cc1cc(Nc2nccc(C(F)(F)F)n2)cc(-c2cnc(C3(O)CCN(C(=O)[C@@H](C)O)CC3)s2)c1 [Example 54A-21]
< 100	Cc1cc(Nc2nccc(C(F)(F)F)n2)cc(-c2cnc(C3(O)CCN(C(=O)CCO)CC3)s2)c1 [Example 54A-22]
< 100	Cc1cc(Nc2nccc(C(F)(F)F)n2)cc(-c2cnc(C3(O)CCN(C(=O)CCC#N)CC3)s2)c1 [Example 54A-23]
< 100	Cc1cc(Nc2nccc(C(F)(F)F)n2)cc(-c2cnc(C3(O)CCN(C(=O)CC(N)=O)CC3)s2)c1 [Example 54A-25]
< 100	Cc1cc(Nc2nccc(C(F)(F)F)n2)cc(-c2cnc(C3(O)CCN(C(=O)CC(C)O)CC3)s2)c1 (centres unmarked) [Example 54A-27]
< 100	Cc1cc(Nc2nccc(C(F)(F)F)n2)cc(-c2cnc(C3(O)CCN(C(=O)c4ncc[nH]4)CC3)s2)c1 [Example 54A-28]
< 100	Cc1cc(Nc2nccc(C(F)(F)F)n2)cc(-c2cnc(C3(O)CCN(C(=O)c4c[nH]cn4)CC3)s2)c1 [Example 54A-29]
< 100	Cc1cc(Nc2nccc(C(F)(F)F)n2)cc(-c2cnc(C3(O)CCN(C(=O)c4nc[nH]n4)CC3)s2)c1 [Example 54A-30]

Same assay, conditions: rhSYK Activity, Table 33B

IC50 [nM]	Structure (SMILES)
< 100	Cc1cc(Nc2nccc(C)n2)cc(-c2cnc(C3(O)CCC(C(=O)O)C(C(C)C)C3)s2)c1 (centres unmarked) [Example 33B-35]
< 100	Cc1cc(Nc2nccc(C)n2)cc(-c2cnc(C3(O)CCC(C(=O)O)C(c4ccccc4)C3)s2)c1 (centres unmarked) [Example 33B-37]

Same assay, conditions: rhSYK Activity, Table 33C

Structure (SMILES)	IC50 [nM]
Cc1cc(Nc2nccc(C)n2)cc(-c2cnc(C3(O)CCC4(CC3)OCCO4)s2)c1 [Example 33C-17]	< 100
Cc1cc(Nc2nccc(C)n2)cc(-c2cnc(C3(O)CC4CCC3CC4C(=O)O)s2)c1 (centres unmarked) [Example 33C-18]	< 100

The remaining lines, values ahead:

IC50 [nM]	Structure (SMILES)
< 100	Cc1cc(Nc2nccc(C(F)(F)F)n2)cc(-c2cnc(C3(O)CC4(CC(C(=O)O)C4)C3)s2)c1 (centres unmarked) [Example 33C-1]
< 100	Cc1cc(Nc2nccc(C(F)(F)F)n2)cc(-c2cnc(C3(O)CC4CCC(C3)C4C(=O)O)s2)c1 (centres unmarked) [Example 33C-2]
< 100	Cc1cc(Nc2nccc(C(F)(F)F)n2)cc(-c2cnc(C3(O)C4CCCC3CC(C(=O)O)C4)s2)c1 (centres unmarked) [Example 33C-3]
< 100	Cc1cc(Nc2nccc(C(F)(F)F)n2)cc(-c2cnc(C3(O)CC[C@H]4C(C(=O)O)[C@H]43)s2)c1 (some centres unmarked) [Example 33C-6]
< 100	Cc1cc(Nc2nccc(C(F)(F)F)n2)cc(-c2cnc(C3(O)C[C@@H]4C(C(=O)O)[C@@H]4C3)s2)c1 (some centres unmarked) [Example 33C-9]
< 100	CCOC(=O)C1[C@H]2CC(O)(c3ncc(-c4cc(C)cc(Nc5nccc(C(F)(F)F)n5)c4)s3)C[C@@H]12 (some centres unmarked) [Example 33C-11]
< 100	Cc1cc(Nc2nccc(C(F)(F)F)n2)cc(-c2cnc(C3(O)CNC3)s2)c1 [Example 33C-13]
< 100	Cc1cc(Nc2nccc(C(F)(F)F)n2)cc(-c2cnc(C3(O)CCN(c4ncccc4C(=O)O)CC3)s2)c1 [Example 33C-15]
100 to 1000	CCOC(=O)c1cccnc1N1CCC(O)(c2ncc(-c3cc(C)cc(Nc4nccc(C(F)(F)F)n4)c3)s2)CC1 [Example 33C-16]

Same assay, conditions: rhSYK Activity, Table 33D

IC50 [nM]	Structure (SMILES)
< 100	Cc1cc(Nc2nccc(C(F)(F)F)n2)cc(-c2cnc(C(C)(O)CCC(C)(C)C(=O)O)s2)c1 (centres unmarked) [Example 33D-1]
< 100	COC(=O)C(C)(C)CCC(C)(O)c1ncc(-c2cc(C)cc(Nc3nccc(C(F)(F)F)n3)c2)s1 (centres unmarked) [Example 33D-4]
< 100	Cc1cc(Nc2nccc(C(F)(F)F)n2)cc(-c2cnc(C(C)(O)COC(C)(C)C(=O)O)s2)c1 (centres unmarked) [Example 33D-7]
< 100	COC(=O)C(C)(C)OCC(C)(O)c1ncc(-c2cc(C)cc(Nc3nccc(C(F)(F)F)n3)c2)s1 (centres unmarked) [Example 33D-8]
< 100	Cc1cc(Nc2nccc(C(F)(F)F)n2)cc(-c2cnc(C(C)(O)CC(C)(C)C(=O)O)s2)c1 (centres unmarked) [Example 33D-9]
< 100	Cc1cc(Nc2nccc(C(F)(F)F)n2)cc(-c2cnc(C(C)(O)CCC(=O)O)s2)c1 (centres unmarked) [Example 33D-10]
< 100	Cc1cc(Nc2nccc(C(F)(F)F)n2)cc(-c2cnc(C(C)(O)c3ccccc3OCC(=O)O)s2)c1 (centres unmarked) [Example 33D-11]
< 100	Cc1cc(Nc2nccc(C(F)(F)F)n2)cc(-c2cnc(C(C)(O)c3ccc(OCC(=O)O)cc3)s2)c1 (centres unmarked) [Example 33D-12]
< 100	Cc1cc(Nc2nccc(C(F)(F)F)n2)cc(-c2cnc(C(C)(O)c3ccc(OC(C)C(=O)O)cc3)s2)c1 (centres unmarked) [Example 33D-13]
< 100	COC(=O)c1ccc(C(C)(O)c2ncc(-c3cc(C)cc(Nc4nccc(C(F)(F)F)n4)c3)s2)cc1 (centres unmarked) [Example 33D-17]
< 100	Cc1cc(Nc2nccc(C(F)(F)F)n2)cc(-c2cnc(C(C)(O)Cc3ccc(C(=O)O)cc3)s2)c1 (centres unmarked) [Example 33D-18]
< 100	Cc1cc(Nc2nccc(C(F)(F)F)n2)cc(-c2cnc(C(C)(O)c3c(C)nn(CCC(=O)O)c3C)s2)c1 (centres unmarked) [Example 33D-19]
< 100	Cc1cc(Nc2nccc(C(F)(F)F)n2)cc(-c2cnc(C(C)(O)c3ccc(C(=O)O)s3)s2)c1 (centres unmarked) [Example 33D-20]
< 100	Cc1cc(Nc2nccc(C(F)(F)F)n2)cc(-c2cnc(C(O)C(C)(C)N3CCC(C(=O)O)CC3)s2)c1 (centres unmarked) [Example 33D-23]
< 100	Cc1cc(Nc2nccc(C(F)(F)F)n2)cc(-c2cnc(C(O)(c3ccc(/C=C/C(=O)O)cc3)C3CC3)s2)c1 (centres unmarked) [Example 33D-24]
< 100	Cc1cc(Nc2nccc(C(F)(F)F)n2)cc(-c2cnc(C(O)(CCCC(=O)O)c3ccncc3)s2)c1 (centres unmarked) [Example 33D-25]

Same assay, conditions: rhSYK Activity, Table 36A

Structure (SMILES)	IC50 [nM]
CCOC(=O)C1CC=C(c2ncc(-c3cccc(Nc4nccc(C(F)(F)F)n4)c3)s2)CC1 (centres unmarked) [Example 36A-1]	100 to 1000
Cc1cc(Nc2nccc(C(F)(F)F)n2)cc(-c2cnc(C3=CC(=O)CC3)s2)c1 [Example 36A-6]	< 100
Cc1cc(Nc2nccc(C(F)(F)F)n2)cc(-c2cnc(C3=CC(=O)CCC3)s2)c1 [Example 36A-7]	< 100
COC(=O)C1CCC(c2ncc(-c3cc(C)cc(Nc4nccc(C(F)(F)F)n4)c3)s2)=CC1(C)C (centres unmarked) [Example 36A-11]	100 to 1000
COC(=O)C1CC=C(c2ncc(-c3cc(C)cc(Nc4nccc(C(F)(F)F)n4)c3)s2)CC1(C)C (centres unmarked) [Example 36A-13]	100 to 1000

Now from value to molecule:

IC50 [nM]	Structure (SMILES)
< 100	Cc1cc(Nc2nccc(C(F)(F)F)n2)cc(-c2cnc(C3=CCC(C(=O)O)CC3)s2)c1 (centres unmarked) [Example 36A-3]
< 100	Cc1cc(Nc2nccc(C(F)(F)F)n2)cc(-c2cnc(C3=CC(=O)CCCC3)s2)c1 [Example 36A-9]

Same assay, conditions: rhSYK Activity, Table 36B

IC50 [nM]	Structure (SMILES)
< 100	Cc1cc(Nc2nccc(C(F)(F)F)n2)cc(-c2cnc(C3CCNC(=O)C3)s2)c1 (centres unmarked) [Example 36B-1]
< 100	Cc1cc(Nc2nccc(C(F)(F)F)n2)cc(-c2cnc(C3=CCNC(=O)CC3)s2)c1 [Example 36B-2]
< 100	Cc1cc(Nc2nccc(C(F)(F)F)n2)cc(-c2cnc(C3CCCNC(=O)C3)s2)c1 (centres unmarked) [Example 36B-3]
< 100	Cc1cc(Nc2nccc(C(F)(F)F)n2)cc(-c2cnc(C3CCNC(=O)CC3)s2)c1 (centres unmarked) [Example 36B-4]

Same assay, conditions: rhSYK Activity, table after Example 43

IC50 [nM]	Structure (SMILES)
< 100	[2H]C([2H])([2H])c1cc(Nc2nccc(C(F)(F)F)n2)cc(-c2cnc([C@]3(O)CC[C@H](C(=O)O)CC3)s2)c1 [Example 43-1]
